These results are taken from patent US20050203482A1, “Pharmaceutical dispensing apparatus and method” (priority 2004, published 2005).

Values after ≈ are worked out from the molar mass of the structure shown.

A short description of the data set: physchem. From the text: The solvents and co-solvents are listed by percentage of volume.

In the case of `C[C@H]1O[C@@H](O[C@H]2[C@@H](O)C[C@H](O[C@H]3[C@@H](O)C[C@H](O[C@H]4CC[C@@]5(C)[C@H](CC[C@@H]6[C@@H]5C[C@@H](O)[C@]5(C)[C@@H](C7=CC(=O)OC7)CC[C@]65O)C4)O[C@@H]3C)O[C@@H]2C)C[C@H](O)[C@@H]1O` [Digoxin], the solubility (aqueous with cosolvent or surfactant or cyclodextrin, solvent 2-P 56%, co-solvent Water 44%, approximate) amounted to 56 mg/mL (≈ 71.7 mM); the solubility (aqueous with cosolvent or surfactant or cyclodextrin, solvent 55% Water, co-solvent 45% H-107, approximate) stood at 52 mg/mL (≈ 66.6 mM); the concentration in solution (aqueous with cosolvent or surfactant or cyclodextrin, solvent Ethanol 80%, co-solvent Water 17%, additive Glycerin 3%, approximate) (solubility) was 9 mg/mL (≈ 11.5 mM); the solubility (organic solvent or mixture, solvent 1,5-pentanediol, approximate) is below 21.9 mg/mL; the solubility (organic solvent or mixture, solvent 2-P 80%, co-solvent Ethanol 20%, approximate) is at least 75 mg/mL; the solubility (organic solvent or mixture, solvent 2-P 100%, approximate) was 102 mg/mL (≈ 131 mM). In addition, the solubility is below 30 mg/mL (organic solvent or mixture, solvent Acetone, approximate); 200 mg/mL (≈ 256 mM) (organic solvent or mixture, solvent DMSO 80%, co-solvent (EtOH) ethanol alcohol 20%, approximate); 9 mg/mL (≈ 11.5 mM) (organic solvent or mixture, solvent Ethanol 100%, approximate); below 16.3 mg/mL (organic solvent or mixture, solvent Ethyl acetate, approximate); below 16.3 mg/mL (organic solvent or mixture, solvent Ethylene glycol (LEG), approximate); below 14.2 mg/mL (organic solvent or mixture, solvent Glycerine, approximate). Also, the solubility by setting is: (organic solvent or mixture, solvent Polyethylene glycol 400 90% Absolute ethanol 6%, co-solvent Water 1%, additive Propylene glycol 3%, approximate) 0.25 mg/mL (≈ 0.32 mM); (organic solvent or mixture, solvent Polyethylene glycols (PEGs), approximate) below 19.3 mg/mL; (water, solvent Water, approximate) 0.024 to 0.07 mg/mL (≈ 0.0307 to 0.0896 mM).
